Laboratory results as given in patent US11786519B2, “Apoptosis-inducing agents for the treatment of cancer and immune and autoimmune diseases” (AbbVie Inc., priority 2011, dated 2023).
pKi: −log10 of the molar value.

Molecular target: Bcl-xL (Homo sapiens, UniProt Q07817)
Assay: TR-FRET binding assay, competition with F-Bak for Bcl-xL
Settings: competition with F-Bak probe, GST-Bcl-xL
Experimental: Determination of the utility of compounds having Formula (I) as binders to and inhibitors of anti-apoptotic Bcl-xL proteins was performed using the Time Resolved-Fluorescence Resonance Energy Transfer (TR-FRET) Assay. Tb-anti-GST antibody was purchased from Invitrogen (Catalog No. PV4216).
The measurement of competition of compounds of the invention with F-Bak for a Bcl-2 family protein (Bcl-xL) binding site using a Time Resolved Fluorescence Resonance Energy Transfer (TR-FRET) binding assay:
Test compounds were serially diluted in DMSO starting at 50 µM (2× starting concentration; 10% DMSO) and 10 μL transferred into a 384-well plate.
The samples are then mixed on a shaker for 1 minute then incubated for an additional 2 hours at room temperature. For each assay plate, a probe/antibody and protein/antibody/probe mixture were included as a negative and a positive control, respectively. Fluorescence was measured on the ENVISION plate reader (Perkin Elmer) using a 340/35 nm excitation filter and 520/525 (F-Bak) and 495/510 nm ([…]) emission filters. Dissociation constants (Ki) were determined using Wang's equation (Wang, Z. X. An exact mathematical expression for describing competitive binding of two different ligands to a protein molecule. FEBS Lett. 1995 360:111-114). The TR-FRET assay can be performed in the presence of varying concentrations of human serum (HS) or fetal bovine serum (FBS).

Sequence of Bcl-xL (Q07817 whole entry): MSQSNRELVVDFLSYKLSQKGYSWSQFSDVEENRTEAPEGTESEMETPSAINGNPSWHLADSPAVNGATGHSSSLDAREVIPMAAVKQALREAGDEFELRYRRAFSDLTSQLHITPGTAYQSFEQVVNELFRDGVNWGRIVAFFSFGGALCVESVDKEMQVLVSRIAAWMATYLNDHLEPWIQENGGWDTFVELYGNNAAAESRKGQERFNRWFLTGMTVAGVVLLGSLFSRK

Compared with `O=C(Nc1nc2ccccc2s1)c1cccc2c1CN(c1ccc(-c3cnn(CC45CC6CC(CC(C6)C4)C5)c3Cl)c(C(=O)O)n1)CC2` [Example 42, 6-[8-(1,3-benzothiazol-2-ylcarbamoyl)-3,4-dihydroisoquinolin-2(1H)-yl]-3-{5-chloro-1-[tricyclo[3.3.1.1^3,7]dec-1-ylmethyl]-1H-pyrazol-4-yl}pyridine-2-carboxylic acid], `O=C(Nc1nc2ccccc2s1)c1cccc2c1CN(c1ccc(-c3cnn(CC45CC6CC(CC(C6)C4)C5)c3)c(C(=O)O)n1)CC2` [Example 1, 6-[8-(1,3-benzothiazol-2-ylcarbamoyl)-3,4-dihydroisoquinolin-2(1H)-yl]-3-{1-[tricyclo[3.3.1.1^3,7]dec-1-ylmethyl]-1H-pyrazol-4-yl}pyridine-2-carboxylic acid] is higher in pKi: 9.52 for the first, over 10.00 for the second.

Compared with `Cc1c(-c2ccc(N3CCc4cccc(C(=O)Nc5nc6ccccc6s5)c4C3)nc2C(=O)O)nnn1CC12CC3CC(CC(C3)C1)C2` [Example 57, 6-[8-(1,3-benzothiazol-2-ylcarbamoyl)-3,4-dihydroisoquinolin-2(1H)-yl]-3-[5-methyl-1-(tricyclo[3.3.1.1^3,7]dec-1-ylmethyl)-1H-1,2,3-triazol-4-yl]pyridine-2-carboxylic acid], `Cc1c(-c2ccc(N3CCc4cccc(C(=O)Nc5nc6ccccc6s5)c4C3)nc2C(=O)O)cc(C#N)n1CCC12CC3CC(CC(C3)C1)C2` [Example 34, 6-[8-(1,3-benzothiazol-2-ylcarbamoyl)-3,4-dihydroisoquinolin-2(1H)-yl]-3-{5-cyano-2-methyl-1-[2-(tricyclo[3.3.1.1^3,7]dec-1-yl)ethyl]-1H-pyrrol-3-yl}pyridine-2-carboxylic acid] is lower in pKi: over 10.00 for the first, 9.40 for the second. The first binds more tightly here.

`COC12CC3CC(CC(Cn4cc(-c5ccc(N6CCc7cccc(C(=O)Nc8nc9ccccc9s8)c7C6)nc5C(=O)O)cn4)(C3)C1)C2` [Example 7, 6-[8-(1,3-benzothiazol-2-ylcarbamoyl)-3,4-dihydroisoquinolin-2(1H)-yl]-3-(1-{[3-methoxytricyclo[3.3.1.1^3,7]dec-1-yl]methyl}-1H-pyrazol-4-yl)pyridine-2-carboxylic acid] and `COCCOC12CC3CC(CC(Cn4cc(-c5ccc(N6CCc7cccc(C(=O)Nc8nc9ccccc9s8)c7C6)nc5C(=O)O)cn4)(C3)C1)C2` [Example 8, 6-[8-(1,3-benzothiazol-2-ylcarbamoyl)-3,4-dihydroisoquinolin-2(1H)-yl]-3-(1-{[3-(2-methoxyethoxy)tricyclo[3.3.1.1^3,7]dec-1-yl]methyl}-1H-pyrazol-4-yl)pyridine-2-carboxylic acid] cannot be ordered by pKi: over 10.00 for the first, over 10.00 for the second.

`COCCC1(Cn2cc(-c3ccc(N4CCc5cccc(C(=O)Nc6nc7ccccc7s6)c5C4)nc3C(=O)O)cn2)C2CC3CC(C2)CC1C3` (stereo not shown) [Example 56, 6-[8-(1,3-benzothiazol-2-ylcarbamoyl)-3,4-dihydroisoquinolin-2(1H)-yl]-3-(1-{[2-(2-methoxyethyl)tricyclo[3.3.1.1^3,7]dec-2-yl]methyl}-1H-pyrazol-4-yl)pyridine-2-carboxylic acid] and `O=C(Nc1nc2ccccc2s1)c1cccc2c1CN(c1ccc(-c3cnn(CC4C5CC6CC(C5)CC4C6)c3)c(C(=O)O)n1)CC2` (stereo not shown) [Example 10, 6-[8-(1,3-benzothiazol-2-ylcarbamoyl)-3,4-dihydroisoquinolin-2(1H)-yl]-3-[1-(tricyclo[3.3.1.1^3,7]dec-2-ylmethyl)-1H-pyrazol-4-yl]pyridine-2-carboxylic acid] cannot be ordered by pKi: over 10.00 for the first, over 10.00 for the second.

`CNCCOCCOCCOC12CC3CC(CC(Cn4ncc(-c5ccc(N6CCc7cccc(C(=O)Nc8nc9ccccc9s8)c7C6)nc5C(=O)O)c4C)(C3)C1)C2` [Example 83, 6-[8-(1,3-benzothiazol-2-ylcarbamoyl)-3,4-dihydroisoquinolin-2(1H)-yl]-3-(5-methyl-1-{[3-(2-{2-[2-(methylamino)ethoxy]ethoxy}ethoxy)tricyclo[3.3.1.1^3,7]dec-1-yl]methyl}-1H-pyrazol-4-yl)pyridine-2-carboxylic acid] and `COC12CC3CC(CC(Cn4ncc(-c5ccc(N6CCc7cccc(C(=O)Nc8nc9ccccc9s8)c7C6)nc5C(=O)NS(=O)(=O)C5CC5)c4C)(C3)C1)C2` [Example 41, N-(1,3-benzothiazol-2-yl)-2-{6-[(cyclopropylsulfonyl)carbamoyl]-5-(1-{[3-methoxytricyclo[3.3.1.1^3,7]dec-1-yl]methyl}-5-methyl-1H-pyrazol-4-yl)pyridin-2-yl}-1,2,3,4-tetrahydroisoquinoline-8-carboxamide] cannot be ordered by pKi: over 10.00 for the first, over 10.00 for the second.

`COC12CC3(C)CC(C)(CC(Cn4ncc(-c5ccc(N6CCc7cccc(C(=O)Nc8nc9ccccc9s8)c7C6)nc5C(=O)O)c4C)(C3)C1)C2` [Example 38, 6-[8-(1,3-benzothiazol-2-ylcarbamoyl)-3,4-dihydroisoquinolin-2(1H)-yl]-3-(1-{[3-methoxy-5,7-dimethyltricyclo[3.3.1.1^3,7]dec-1-yl]methyl}-5-methyl-1H-pyrazol-4-yl)pyridine-2-carboxylic acid] and `CNCCOC12CC3(C)CC(C)(CC(Cn4ncc(-c5ccc(N6CCc7cccc(C(=O)Nc8nc9ccccc9s8)c7C6)nc5C(=O)O)c4C)(C3)C1)C2` [Example 82, 6-[8-(1,3-benzothiazol-2-ylcarbamoyl)-3,4-dihydroisoquinolin-2(1H)-yl]-3-[1-({3,5-dimethyl-7-[2-(methylamino)ethoxy]tricyclo[3.3.1.1^3,7]dec-1-yl}methyl)-5-methyl-1H-pyrazol-4-yl]pyridine-2-carboxylic acid] cannot be ordered by pKi: over 10.00 for the first, over 10.00 for the second.

Compared with `Cc1c(-c2ccc(N3CCc4cccc(C(=O)Nc5nc6ccccc6s5)c4C3)nc2C(=O)O)ccnc1OCC12CC3CC(CC(C3)C1)C2` [Example 27, 6-[8-(1,3-benzothiazol-2-ylcarbamoyl)-3,4-dihydroisoquinolin-2(1H)-yl]-3′-methyl-2′-(tricyclo[3.3.1.1^3,7]dec-1-ylmethoxy)-3,4′-bipyridine-2-carboxylic acid], `Cc1c(-c2ccc(N3CCc4cccc(C(=O)Nc5nc6ccccc6s5)c4C3)nc2C(=O)O)cccc1S(=O)(=O)NC12CC3CC(CC(C3)C1)C2` [Example 51, 6-[8-(1,3-benzothiazol-2-ylcarbamoyl)-3,4-dihydroisoquinolin-2(1H)-yl]-3-{2-methyl-3-[tricyclo[3.3.1.1^3,7]dec-1-ylsulfamoyl]phenyl}pyridine-2-carboxylic acid] is 0.48 log units lower in pKi: 10.00 for the first, 9.52 for the second.

Compared with `O=C(Nc1nc2ccccc2s1)c1cccc2c1CN(c1ccc(-c3cnn(CC45CC6CC(CC(C6)O4)C5)c3)c(C(=O)O)n1)CC2` [Example 13, 6-[8-(1,3-benzothiazol-2-ylcarbamoyl)-3,4-dihydroisoquinolin-2(1H)-yl]-3-[1-(2-oxatricyclo[3.3.1.1^3,7]dec-1-ylmethyl)-1H-pyrazol-4-yl]pyridine-2-carboxylic acid], `COC12CC3CC(CC(Cn4ncc(-c5ccc(N6CCc7cccc(C(=O)Nc8nc9ccccc9s8)c7C6)nc5C(=O)NS(=O)(=O)N5CCOCC5)c4C)(C3)C1)C2` [Example 39, N-(1,3-benzothiazol-2-yl)-2-{5-(1-{[3-methoxytricyclo[3.3.1.1^3,7]dec-1-yl]methyl}-5-methyl-1H-pyrazol-4-yl)-6-[(morpholin-4-ylsulfonyl)carbamoyl]pyridin-2-yl}-1,2,3,4-tetrahydroisoquinoline-8-carboxamide] is lower in pKi: over 10.00 for the first, 7.92 for the second.
